Reference: the Kinase Knowledgebase extract (Sharma et al. 2016)
pIC50: −log10 of the molar value.

These compounds were tested against MAPK14 (human) (UniProt Q16539) (assay: Inhibition of MAPK14 Kinase Activity).
Chain of MAPK14 (human) (Q16539 whole entry, looked up): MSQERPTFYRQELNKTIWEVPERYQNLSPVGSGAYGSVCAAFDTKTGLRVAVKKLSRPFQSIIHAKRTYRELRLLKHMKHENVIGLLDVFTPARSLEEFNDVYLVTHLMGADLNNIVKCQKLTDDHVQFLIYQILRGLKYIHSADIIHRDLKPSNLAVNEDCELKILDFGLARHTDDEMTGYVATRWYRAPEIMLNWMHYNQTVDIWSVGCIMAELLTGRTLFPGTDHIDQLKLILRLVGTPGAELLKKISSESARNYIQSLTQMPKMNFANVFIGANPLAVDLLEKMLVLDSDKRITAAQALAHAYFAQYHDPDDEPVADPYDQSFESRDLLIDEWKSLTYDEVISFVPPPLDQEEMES
`C[C@H](O)CNc1ncc2cc(Oc3ccc(F)cc3F)c(=O)n(C[C@@H](C)O)c2n1` gave a pIC50 of 7.00 to 9.00.
Compound `C[C@H](O)Cn1c(=O)c(Oc2ccc(F)cc2F)cc2cnc(NCC(C)(C)C)nc21` has a pIC50 of 7.00 to 9.00.
With `CC(O)Cn1c(=O)c(Oc2ccc(F)cc2F)cc2cnc(NC3CCOCC3)nc21` (stereo unspecified) the pIC50 was 7.00 to 9.00.
`C[C@H](O)Cn1c(=O)c(Oc2ccc(F)cc2F)cc2cnc(NC3CCCCC3)nc21` showed a pIC50 of 7.00 to 9.00.
In the case of `O=c1c(Oc2ccc(F)cc2F)cc2cnc(NC3CCOCC3)nc2n1CCO`, the pIC50 was 7.00 to 9.00.
For `CC(=O)Cn1c(=O)c(Oc2ccc(F)cc2F)cc2cnc(N[C@H](C)CO)nc21`, the pIC50 was 7.00 to 9.00.
In the case of `C[C@H](O)Cn1c(=O)c(Oc2ccc(F)cc2F)cc2cnc(NC3CCCC3)nc21`, the pIC50 was 7.00 to 9.00.
`C[C@H](O)Cn1c(=O)c(Oc2ccc(F)cc2F)cc2cnc(NC[C@@H](C)O)nc21` was tested, and the pIC50 was 7.00 to 9.00.
With `C[C@H](O)Cn1c(=O)c(Oc2ccc(F)cc2F)cc2cnc(NC3CC3)nc21` the pIC50 was 7.00 to 9.00.
In the case of `COC[C@H](C)Nc1ncc2cc(Oc3ccc(F)cc3F)c(=O)n(C[C@H](C)O)c2n1`, the pIC50 was 7.00 to 9.00.
Compound `C[C@H](O)Cn1c(=O)c(Oc2ccc(F)cc2F)cc2cnc(NC(CO)CO)nc21` has a pIC50 of 7.00 to 9.00.
`C[C@H](O)Cn1c(=O)c(Oc2ccc(F)cc2F)cc2cnc(NC(CCO)CCO)nc21` gave a pIC50 of 7.00 to 9.00.
`C[C@H](O)Cn1c(=O)c(Oc2ccc(F)cc2F)cc2cnc(N[C@@H](CO)CCO)nc21` gave a pIC50 of 7.00 to 9.00.
`C[C@H](Nc1ncc2cc(Oc3ccc(F)cc3F)c(=O)n(C[C@@H](C)O)c2n1)C(C)(C)O` showed a pIC50 of 7.00 to 9.00.
Compound `COC[C@H](C)Nc1ncc2cc(Oc3ccc(F)cc3F)c(=O)n(C(CCO)CCO)c2n1` has a pIC50 of 7.00 to 9.00.
`C[C@@H](O)Cn1c(=O)c(Oc2ccc(F)cc2F)cc2cnc(NCC(C)(C)C)nc21` gave a pIC50 of 7.00 to 9.00.
For `CC(=O)Cn1c(=O)c(Oc2ccc(F)cc2F)cc2cnc(N[C@@H](C)CO)nc21`, the pIC50 was 7.00 to 9.00.
Compound `C[C@H](O)Cn1c(=O)c(Oc2ccc(F)cc2F)cc2cnc(N[C@@H](C)CO)nc21` has a pIC50 of 7.00 to 9.00.
`C[C@H](O)Cn1c(=O)c(Oc2ccc(F)cc2F)cc2cnc(NC(C)(C)CO)nc21` was tested, and the pIC50 was 7.00 to 9.00.
`C[C@@H](O)Cn1c(=O)c(Oc2ccc(F)cc2F)cc2cnc(NC3CC3)nc21` showed a pIC50 of 7.00 to 9.00.
`C[C@H](O)Cn1c(=O)c(Oc2ccc(F)cc2F)cc2cnc(N[C@H](C)CO)nc21` gave a pIC50 of 7.00 to 9.00.
Work on `CC[C@H](C)Nc1ncc2cc(Oc3ccc(F)cc3F)c(=O)n(C[C@H](C)O)c2n1` yielded a pIC50 of 7.00 to 9.00.
In the case of `CC[C@H](C)Nc1ncc2cc(Oc3ccc(F)cc3F)c(=O)n(C[C@@H](C)O)c2n1`, the pIC50 was 7.00 to 9.00.
`C[C@H](CO)Nc1ncc2cc(Oc3ccc(F)cc3F)c(=O)n(C[C@@H](C)O)c2n1` was tested, and the pIC50 was 7.00 to 9.00.
For `C[C@H](O)CNc1ncc2cc(Oc3ccc(F)cc3F)c(=O)n(C[C@H](C)O)c2n1`, the pIC50 was 7.00 to 9.00.
`C[C@H](O)Cn1c(=O)c(Oc2ccc(F)cc2F)cc2cnc(N[C@H](CO)CCO)nc21` gave a pIC50 of 7.00 to 9.00.
`CCNc1ncc2cc(Oc3ccc(F)cc3F)c(=O)n(C[C@@H](C)O)c2n1` gave a pIC50 of 7.00 to 9.00.
For `C[C@@H](O)Cn1c(=O)c(Oc2ccc(F)cc2F)cc2cnc(NC3CCOCC3)nc21`, the pIC50 was 7.00 to 9.00.
Compound `CC[C@@H](C)Nc1ncc2cc(Oc3ccc(F)cc3F)c(=O)n(C[C@@H](C)O)c2n1` has a pIC50 of 7.00 to 9.00.
Compound `C[C@H](O)Cn1c(=O)c(Oc2ccc(F)cc2F)cc2cnc(NC3CCN(S(C)(=O)=O)CC3)nc21` has a pIC50 of 7.00 to 9.00.
`C[C@@H](O)Cn1c(=O)c(Oc2ccc(F)cc2F)cc2cnc(N[C@@H](C)CO)nc21` showed a pIC50 of 7.00 to 9.00.
In the case of `C[C@@H](O)Cn1c(=O)c(Oc2ccc(F)cc2F)cc2cnc(NC3CCC3)nc21`, the pIC50 was 7.00 to 9.00.
Work on `CC[C@H](CO)Nc1ncc2cc(Oc3ccc(F)cc3F)c(=O)n(C[C@@H](C)O)c2n1` yielded a pIC50 of 7.00 to 9.00.
Work on `CNc1ncc2cc(Oc3ccc(F)cc3F)c(=O)n(C[C@@H](C)O)c2n1` yielded a pIC50 of 7.00 to 9.00.
For `C[C@@H](O)Cn1c(=O)c(Oc2ccc(F)cc2F)cc2cnc(NC(C)(C)CO)nc21`, the pIC50 was 7.00 to 9.00.
In the case of `CC(C)Nc1ncc2cc(Oc3ccc(F)cc3F)c(=O)n(C[C@H](C)O)c2n1`, the pIC50 was 7.00 to 9.00.
`CC[C@H](CO)Nc1ncc2cc(Oc3ccc(F)cc3F)c(=O)n(C[C@H](C)O)c2n1` was tested, and the pIC50 was 7.00 to 9.00.
For `C[C@H](O)Cn1c(=O)c(Oc2ccc(F)cc2F)cc2cnc(N[C@H](CO)[C@@H](C)O)nc21`, the pIC50 was 7.00 to 9.00.
Compound `CC[C@@H](C)Nc1ncc2cc(Oc3ccc(F)cc3F)c(=O)n(C[C@H](C)O)c2n1` has a pIC50 of 7.00 to 9.00.
`COCCC(CCOC)Nc1ncc2cc(Oc3ccc(F)cc3F)c(=O)n(C[C@H](C)O)c2n1` showed a pIC50 of 7.00 to 9.00.
With `CC(C)CNc1ncc2cc(Oc3ccc(F)cc3F)c(=O)n(C[C@@H](C)O)c2n1` the pIC50 was 7.00 to 9.00.
In the case of `C[C@H](O)Cn1c(=O)c(Oc2ccc(F)cc2F)cc2cnc(NC3CCOCC3)nc21`, the pIC50 was 7.00 to 9.00.
Work on `C[C@@H](O)Cn1c(=O)c(Oc2ccc(F)cc2F)cc2cnc(NCC3CC3)nc21` yielded a pIC50 of 7.00 to 9.00.
For `C[C@@H](O)CNc1ncc2cc(Oc3ccc(F)cc3F)c(=O)n(C[C@@H](C)O)c2n1`, the pIC50 was 7.00 to 9.00.
Compound `CC(C)Nc1ncc2cc(Oc3ccc(F)cc3F)c(=O)n(C[C@@H](C)O)c2n1` has a pIC50 of 7.00 to 9.00.
`CC[C@@H](CO)Nc1ncc2cc(Oc3ccc(F)cc3F)c(=O)n(C[C@H](C)O)c2n1` gave a pIC50 of 7.00 to 9.00.
